The record followed here is patent US20260258033A1, “2,7-Naphthyridine Compounds as MASTL Inhibitors” (Pfizer Inc., priority 2022, published 2026).

The target of the assay is T1, Full-length human recombinant N-term FLAG-tagged MASTL protein (Homo sapiens, UniProt Q96GX5).
T1 sequence (Q96GX5 1-879): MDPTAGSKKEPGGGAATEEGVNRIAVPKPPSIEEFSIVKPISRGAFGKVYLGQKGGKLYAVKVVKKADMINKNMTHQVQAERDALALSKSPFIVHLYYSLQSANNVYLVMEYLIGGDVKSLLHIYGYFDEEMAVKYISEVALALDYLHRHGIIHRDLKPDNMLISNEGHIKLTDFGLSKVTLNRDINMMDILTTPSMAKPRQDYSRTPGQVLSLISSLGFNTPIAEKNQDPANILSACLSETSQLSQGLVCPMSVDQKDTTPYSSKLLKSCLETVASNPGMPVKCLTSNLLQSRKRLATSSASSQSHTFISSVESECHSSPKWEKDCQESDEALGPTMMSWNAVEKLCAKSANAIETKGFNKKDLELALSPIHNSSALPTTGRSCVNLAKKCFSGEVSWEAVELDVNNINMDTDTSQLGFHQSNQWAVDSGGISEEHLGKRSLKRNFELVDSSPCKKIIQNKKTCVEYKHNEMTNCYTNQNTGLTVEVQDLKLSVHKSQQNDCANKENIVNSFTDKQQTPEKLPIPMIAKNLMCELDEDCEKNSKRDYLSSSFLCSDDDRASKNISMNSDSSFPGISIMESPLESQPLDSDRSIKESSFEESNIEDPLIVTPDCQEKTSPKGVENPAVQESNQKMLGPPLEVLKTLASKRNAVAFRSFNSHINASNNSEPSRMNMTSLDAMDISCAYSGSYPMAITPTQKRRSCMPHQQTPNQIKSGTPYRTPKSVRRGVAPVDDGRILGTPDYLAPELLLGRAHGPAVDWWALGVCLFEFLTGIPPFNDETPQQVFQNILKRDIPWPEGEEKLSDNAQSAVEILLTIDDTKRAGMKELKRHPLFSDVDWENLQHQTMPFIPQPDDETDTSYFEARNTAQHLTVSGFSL
Nature of the assay: MASTL enzyme kinase assay (CHEF PhosphoSens). As to conditions: MASTL Ki (nM), 3 nM MASTL, 1 mM ATP, room temperature; geometric mean of at least 3 independent determinations (* denotes n = 2).
Excerpt: MASTL enzyme kinase assay was used to measure the inhibition constant (Ki) of Examples of the present invention.
Full-length human recombinant N-term FLAG-tagged MASTL protein (construct LJIC-3077G2), activated by CDK1, was produced at Pfizer Inc by expression in baculovirus-infected insect cells. All reagents were purchased from Sigma-Aldrich, Inc (St. Louis, MO), unless specified otherwise. Tween™ 20 detergent (10% Solution) was purchased from EMD Millipore Corp (Billerica, MA). The CHEF phosphoacceptor peptide substrate (AQT0693) was purchased from AssayQuant technologies, Inc (Marlboro, MA). […] The reactions contained 1 mM ATP and were initiated by the addition of enzyme. Initial reaction velocities were determined by following the fluorescence (λex=360 nm, λem=485 nm) of appropriate CHEF peptide substrate for 120 minutes in an end-point mode in a SpectraMax Paradigm Microplate Reader (Molecular Devices, LLC. San Jose, California). The extents of reactions were estimated to be <20%.
As a reminder, the Ki is a measure of affinity in units of concentration, obtained from inhibition or displacement. For the compound `CNC(C)(c1ccnc(Nc2cc3cc(-c4cnnn4C)nc(N)c3cn2)c1)C(C)C` (single isomer, unassigned) [Example 30, 3-(1-methyl-1H-1,2,3-triazol-5-yl)-N^6-(4-(3-methyl-2-(methylamino)butan-2-yl)pyridin-2-yl)-2,7-naphthyridine-1,6-diamine], the inhibition constant (Ki) was found to be 0.036 nM.
`CNC(c1ccnc(Nc2cc3cc(-c4cnnn4C)nc(N)c3cn2)c1)C(C)(C)C` (single isomer, unassigned) [Example 35, N^6-(4-(2,2-dimethyl-1-(methylamino)propyl)pyridin-2-yl)-3-(1-methyl-1H-1,2,3-triazol-5-yl)-2,7-naphthyridine-1,6-diamine]: the Ki was 0.32 nM.
Then `Cn1nncc1-c1cc2cc(Nc3cc(C(C)(N)C(F)(F)F)ccn3)ncc2c(N)n1` (single isomer, unassigned) [Example 28, N^6-(4-(2-amino-1,1,1-trifluoropropan-2-yl)pyridin-2-yl)-3-(1-methyl-1H-1,2,3-triazol-5-yl)-2,7-naphthyridine-1,6-diamine], with 0.093 nM; and `CNC1(c2ccnc(Nc3cc4cc(-c5cnnn5C)nc(N)c4cn3)c2)CCC1` [Example 24, 3-(1-methyl-1H-1,2,3-triazol-5-y1)-N^6-(4-(1-(methylamino)cyclobutyl)pyridin-2-yl)-2,7-naphthyridine-1,6-diamine], with 0.089 nM; and `CCC1(NC)CCc2c1ccnc2Nc1cc2cc(-c3cnnn3C)nc(N)c2cn1` (single isomer, unassigned) [Example 4, N^6-(5-ethyl-5-(methylamino)-6,7-dihydro-5H-cyclopenta[c]pyridin-1-yl)-3-(1-methyl-1H-1,2,3-triazol-5-yl)-2,7-naphthyridine-1,6-diamine], with 0.47 nM.
The same measure for `CCC(N)c1cc(Nc2cc3cc(-c4cnnn4C)nc(N)c3cn2)ncc1C` (single isomer, unassigned) [Example 13, N^6-(4-(1-aminopropyl)-5-methylpyridin-2-yl)-3-(1-methyl-1H-1,2,3-triazol-5-yl)-2,7-naphthyridine-1,6-diamine]: 0.065 nM; for `CNC(C)(COC)c1ccnc(Nc2cc3cc(-c4cnnn4C)nc(N)c3cn2)c1` (single isomer, unassigned) [Example 33, N^6-(4-(1-methoxy-2-(methylamino)propan-2-yl)pyridin-2-yl)-3-(1-methyl-1H-1,2,3-triazol-5-yl)-2,7-naphthyridine-1,6-diamine]: 0.25 nM.
Regarding `CCC1(NC)CCc2c1ccnc2Nc1cc2cc(-c3cnnn3C)nc(N)c2cn1` (single isomer, unassigned) [Example 3, N^6-(5-ethyl-5-(methylamino)-6,7-dihydro-5H-cyclopenta[c]pyridin-1-yl)-3-(1-methyl-1H-1,2,3-triazol-5-yl)-2,7-naphthyridine-1,6-diamine], the Ki was determined as 0.36 nM.
The same measure for `CCC(N)(CC)c1cc(Nc2cc3cc(-c4cnnn4C)nc(N)c3cn2)ncn1` [Example 23, N^6-(6-(3-aminopentan-3-yl)pyrimidin-4-yl)-3-(1-methyl-1H-1,2,3-triazol-5-yl)-2,7-naphthyridine-1,6-diamine]: 0.057 nM; for `Cn1nncc1-c1cc2cc(Nc3cc(C(C)(N)CC(F)(F)F)ccn3)ncc2c(N)n1` (single isomer, unassigned) [Example 25, N^6-(4-(2-amino-4,4,4-trifluorobutan-2-yl)pyridin-2-yl)-3-(1-methyl-1H-1,2,3-triazol-5-yl)-2,7-naphthyridine-1,6-diamine]: 0.078 nM.
Consider `Cn1nncc1-c1cc2cc(Nc3cc(C(N)CC(F)(F)F)ccn3)ncc2c(N)n1` (single isomer, unassigned) [Example 17, N^6-(4-(1-amino-3,3,3-trifluoropropyl)pyridin-2-yl)-3-(1-methyl-1H-1,2,3-triazol-5-yl)-2,7-naphthyridine-1,6-diamine], for which the inhibitory constant (Ki) was determined as 0.12 nM.
Then `CNC(C)(COC)c1ccnc(Nc2cc3cc(-c4cnnn4C)nc(N)c3cn2)c1` (single isomer, unassigned) [Example 32, N^6-(4-(1-methoxy-2-(methylamino)propan-2-yl)pyridin-2-yl)-3-(1-methyl-1H-1,2,3-triazol-5-yl)-2,7-naphthyridine-1,6-diamine], with 0.087 nM.
The same measure for `CNC(C)(c1ccnc(Nc2cc3cc(-c4cnnn4C)nc(N)c3cn2)c1)C1CC1` (single isomer, unassigned) [Example 20, N^6-(4-(1-cyclopropyl-1-(methylamino)ethyl)pyridin-2-yl)-3-(1-methyl-1H-1,2,3-triazol-5-yl)-2,7-naphthyridine-1,6-diamine]: 0.049 nM; for `CCn1nncc1-c1cc2cc(Nc3cc(C4(N)CCCC4)ccn3)ncc2c(N)n1` [Example 38, N^6-(4-(1-aminocyclopentyl)pyridin-2-yl)-3-(1-ethyl-1H-1,2,3-triazol-5-yl)-2,7-naphthyridine-1,6-diamine]: 0.019 nM; for `CCC1(NC)CCc2cnc(Nc3cc4cc(-c5cnnn5C)nc(N)c4cn3)cc21` (single isomer, unassigned) [Example 6, N^6-(5-ethyl-5-(methylamino)-6,7-dihydro-5H-cyclopenta[c]pyridin-3-yl)-3-(1-methyl-1H-1,2,3-triazol-5-yl)-2,7-naphthyridine-1,6-diamine]: 0.076 nM.
The same measure for `CNC(C)(c1ccnc(Nc2cc3cc(-c4cnnn4C)nc(N)c3cn2)c1)C1CC1` (single isomer, unassigned) [Example 19, N^6-(4-(1-cyclopropyl-1-(methylamino)ethyl)pyridin-2-yl)-3-(1-methyl-1H-1,2,3-triazol-5-yl)-2,7-naphthyridine-1,6-diamine]: 0.047 nM; for `CNC(c1ccnc(Nc2cc3cc(-c4cnnn4C)nc(N)c3cn2)c1)C(C)(C)C` (single isomer, unassigned) [Example 34, N^6-(4-(2,2-dimethyl-1-(methylamino)propyl)pyridin-2-yl)-3-(1-methyl-1H-1,2,3-triazol-5-yl)-2,7-naphthyridine-1,6-diamine]: 0.23 nM; for `CCn1nncc1-c1cc2cc(Nc3cc(C(C)(C)NC)ccn3)ncc2c(N)n1` [Example 37, 3-(1-ethyl-1H-1,2,3-triazol-5-yl)-N^6-(4-(2-(methylamino)propan-2-yl)pyridin-2-yl)-2,7-naphthyridine-1,6-diamine]: 0.059 nM.
In the case of `CCC(N)c1cc(Nc2cc3cc(-c4cnnn4C)nc(N)c3cn2)ncc1C` (single isomer, unassigned) [Example 14, N^6-(4-(1-aminopropyl)-5-methylpyridin-2-yl)-3-(1-methyl-1H-1,2,3-triazol-5-yl)-2,7-naphthyridine-1,6-diamine], the inhibition constant (Ki) is 0.098 nM.
In the case of `Cn1nncc1-c1cc2cc(Nc3cc(C(C)(N)CC(F)(F)F)ccn3)ncc2c(N)n1` (single isomer, unassigned) [Example 26, N^6-(4-(2-amino-4,4,4-trifluorobutan-2-yl)pyridin-2-yl)-3-(1-methyl-1H-1,2,3-triazol-5-yl)-2,7-naphthyridine-1,6-diamine], the Ki was 0.075 nM.
As for `Cn1nncc1-c1cc2cc(Nc3cc(C(N)CC(F)(F)F)ccn3)ncc2c(N)n1` (single isomer, unassigned) [Example 18, N^6-(4-(1-amino-3,3,3-trifluoropropyl)pyridin-2-yl)-3-(1-methyl-1H-1,2,3-triazol-5-yl)-2,7-naphthyridine-1,6-diamine], the Ki came out at 0.088 nM.
`CNC1(c2ccnc(Nc3cc4cc(-c5cnnn5C)nc(N)c4cn3)c2)CCCC1` [Example 27, 3-(1-methyl-1H-1,2,3-triazol-5-y1)-N^6-(4-(1-(methylamino)cyclopentyl)pyridin-2-yl)-2,7-naphthyridine-1,6-diamine]: the inhibition constant Ki was 0.073 nM.
On to `CN(C)C(C)(C)c1ccnc(Nc2cc3cc(-c4cnnn4C)nc(N)c3cn2)c1` [Example 36, N^6-(4-(2-(dimethylamino)propan-2-yl)pyridin-2-yl)-3-(1-methyl-1H-1,2,3-triazol-5-yl)-2,7-naphthyridine-1,6-diamine], for which the inhibitory constant (Ki) worked out at 0.061 nM.
The same measure for `CCC1(NC)CCc2cnc(Nc3cc4cc(-c5cnnn5C)nc(N)c4cn3)cc21` (single isomer, unassigned) [Example 5, N^6-(5-ethyl-5-(methylamino)-6,7-dihydro-5H-cyclopenta[c]pyridin-3-yl)-3-(1-methyl-1H-1,2,3-triazol-5-yl)-2,7-naphthyridine-1,6-diamine]: 0.033 nM; for `CNC(C)(c1ccnc(Nc2cc3cc(-c4cnnn4C)nc(N)c3cn2)c1)C(C)C` (single isomer, unassigned) [Example 31, 3-(1-methyl-1H-1,2,3-triazol-5-yl)-N^6-(4-(3-methyl-2-(methylamino)butan-2-yl)pyridin-2-yl)-2,7-naphthyridine-1,6-diamine]: 0.03 nM.
